In article PMC11901561, “Free Radical Scavenging Activity and Inhibition of Enzyme-Catalyzed Oxidation by trans-aryl-Palladium Complexes” (Molecules, 2025):
Like-named read-outs stand apart in the source and are kept apart here.

Assays:
[1] = target: T1, horseradish peroxidase (HRP) (Armoracia rusticana, UniProt P00433); experiment: biochemical; type: biochemical; details: for Effect on chemiluminescence at lowest concentrations: 1, 5, and 10 µM, HRP-H2O2/L-012; for EC50: HRP-H2O2/L-012 system, pH 7.5, 37 °C, 30 min, read-out: EC50 chemiluminescence assay
T1 sequence (P00433 31-338 limits assumed): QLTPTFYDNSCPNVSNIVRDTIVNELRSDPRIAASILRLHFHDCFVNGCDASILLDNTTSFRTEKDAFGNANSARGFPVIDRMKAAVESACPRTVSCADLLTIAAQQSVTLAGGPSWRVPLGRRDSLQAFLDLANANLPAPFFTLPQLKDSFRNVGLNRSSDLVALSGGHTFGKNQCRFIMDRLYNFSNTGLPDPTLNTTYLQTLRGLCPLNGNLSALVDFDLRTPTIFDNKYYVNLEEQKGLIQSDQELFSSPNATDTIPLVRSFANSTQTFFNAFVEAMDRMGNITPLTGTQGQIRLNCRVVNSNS
Procedure: To investigate the effect of selected palladium (II)-based complexes on the peroxidase (HRP)-catalyzed oxidation of the chemiluminescent probe (L-012), in the presence of hydrogen peroxide (H2O2), the chemiluminescence technique was used. Briefly, plate-reader-based luminescence measurements were performed in white 96-well plates using a Fluoroskan Ascent FL microplate reader (Thermo Labsystems, Vantaa, Finland), with the temperature set at 37 °C. To 5 µL of a stock solution of HRP (1 mg/mL) in phosphate buffer (pH = 7.5) per well, we successively added 10 µL of L-012 (aqueous solution, 0.84 mmoL) and 2 µL of tested compound in 163 µL of buffer solution. The reaction was triggered by adding 20 µL hydrogen peroxide (0.19 µM) to reach the final volume of 200 µL. The light emission, produced from oxidation of L-012 by HRP/H2O2 system, in the presence or absence of the tested palladium complex, was recorded in kinetic mode for 30 min. Inhibition of the emitted light due to tested complexes was associated with higher activity. The following formula was applied to calculate the inhibiting activity of complexes towards the oxidation of L-012 catalyzed by the HRP/H2O2 system:% inhibition = (L control − L Sample) x 100/L Control
(§1) Results were expressed as mean values ± standard deviation (SD). All measurements were replicated three times. EC50 values were calculated with GraphPad Prism 6.0 (GraphPad Software, San Diego, CA, USA) under the application of the function “log (inhibitor) versus normalized response-variable slope” after converting the concentrations into their decimal logarithm. The results were analyzed using Student’s test and a two-way analysis of variance (ANOVA), and a multiple comparison of all data was performed using Tukey’s multiple comparisons test. p < 0.0001 was considered significant.

[2] = ABTS radical scavenging test (spectrophotometric, 734 nm); details: for Radical scavenging activity against ABTS•+: inhibition curve did not converge, EC50 could not be calculated
Procedure: (§2) Radical scavenging capacity, as an indicator of the antioxidant capacity of compounds against 1,1-diphenyl-2-picrylhydrazyl (DPPH) free radicals and 2,2-azinobis (3-ethyl- enzothiazoline-6-sulfonic acid), ABTS•+ radical cations, was determined using a spectrophotometric assay. Antiradical capacity analysis was performed either on pure MeOH for ABTS or the mixture of MeOH/distilled water (90:10 v/v) for DPPH. For both ABTS and DPPH assays, the stock solutions of complexes were prepared in DMSO. Quercetin was used as an antioxidant standard in the DPPH and ABTS•+ scavenging tests. EC50 is defined as the concentration of compound (µM) required to scavenge 50% of ABTS•+ or DPPH radicals. EC50 values were estimated using nonlinear regression. A lower EC50 value indicates higher antiradical activity.
The ABTS assay was based on the method described by Re et al.. For the generation of ABTS•+ radicals, sodium persulfate (2.45 mM) aqueous solution was mixed with ABTS (7 mM) and incubated overnight in the dark to obtain a dark colored solution. The stock solution of ABTS•+ was then diluted by adding pure methanol (100%) to obtain an absorbance of 0.70 (±0.02) at 734 nm at 30 °C. An aliquot of 0.02 mL of tested compound was added to 1.98 mL of ABTS•+, and the decrease in absorbance was monitored at 734 nm after 30 min [80]. During this reaction, the blue green ABTS radical cation is converted back into its colorless neutral form in the presence of the potential antioxidant molecule. A control consisted of 0.02 mL of DMSO in 1.98 mL of ABTS•+ solution. The reducing capacity was determined according to the following formula:% inhibition = (A control − A Sample) × 100/A Control (1)
as §1

[3] = Antiradical efficiency (kinetic study via DPPH assay); details: for AE (antiradical efficiency): AE = 1/EC50.TEC50, DPPH; for Classification of antiradical efficiency: according to Sanchez-Moreno, from AE value; for TEC50: time needed to reach the steady state at the EC50 concentration, DPPH
Procedure: The reaction between potential antioxidants and the oxidized substrate requires a steady state which will depend on several parameters, such as the reaction time. The time needed to reach the steady state, at the concentration corresponding to EC50, is more and more frequently used and can be defined as TEC50. In brief, TEC50 was determined by plotting the recorded absorbance during the period for the EC50 concentration for the considered antioxidant compound. […] The antiradical efficiency of compounds and their classification are considered according to the work of Sanchez-Moreno [69].

[4] = DPPH radical scavenging test (spectrophotometric, 517 nm); details: for EC50 (g Antioxidant/kg DPPH°): EC50 expressed as weight of antioxidant per kg of DPPH radical; for EC50: concentration scavenging 50% of DPPH, 90% MeOH, 30 min, mean ± SD
Procedure: as §2, with “EC50 is defined as the concentration of compound (µM) required to scavenge 50% of ABTS•+ or DPPH radicals.” left out
The DPPH assay was performed according to the method developed by Brand-Williams et al. slightly modified. A solution of 1 mM DPPH in 90% (v/v) methanol was stirred for 40 min. The absorbance of the solution was adjusted to 0.650 ± 0.020 at 517 nm using fresh 90% (v/v) methanol. Then, 0.02 mL of quercetin taken as a standard or sample was mixed with 1.98 mL of DPPH solution and incubated for 30 min in the dark covered with aluminum foil. When reacting with an antioxidant, the DPPH• radical is converted into DPPH, and its color changes from purple to yellow. The antioxidant effect may be easily evaluated by observing the decrease in visible absorption. The absorbance decrease was monitored at 517 nm after 30 min of incubation with a Hewlett Packard 8453 spectrophotometer. The control consisted of 0.02 mL of DMSO in 1.98 mL of DPPH solution. A similar formula (Equation (1)) was applied to determine the DPPH radical scavenging activity.
as §1

[5] = flavonoid comparison ref 63; read-out: IC50 DPPH, literature value; cited from earlier work
[6] = concentration scavenging 50% of ABTS•+, MeOH, 30 min, mean ± SD

[Br][Pd@SP2]([c]1ccccc1)([PH](c1ccccc1)(c1ccccc1)c1ccccc1)[PH](c1ccccc1)(c1ccccc1)c1ccccc1 [Complex 8, Trans-Bromo(phenyl)bis(triphenylphosphine)Palladium]
Effect on chemiluminescence at lowest concentrations [1]: weak effect | EC50 [1]: 33.3 ± 11.7 µM | EC50 [2, 6]: 0.0143 ± 0.00092 mM | AE (antiradical efficiency) [3]: 0.0955 ×10^−3 | Classification of antiradical efficiency [3]: Low | TEC50 [3]: 40 min | Activity against the DPPH radical ([4]; 100 µM): good activity | EC50 (g Antioxidant/kg DPPH°) [4]: 260.96 ± 40 g Antioxidant/kg DPPH° | EC50 [4]: 6.64 ± 0.91 µM

[I][Pd]([c]1ccccc1)([PH](c1ccccc1)(c1ccccc1)c1ccccc1)[PH](c1ccccc1)(c1ccccc1)c1ccccc1 [Complex 7, Trans-Iodo(phenyl)bis(triphenylphosphine)Palladium]
Effect on chemiluminescence at lowest concentrations [1]: weak effect | EC50 [1]: 67 ± 20.1 µM | Activity against the ABTS radical ([2]; 100 µM): good activity | EC50 [2, 6]: 0.00614 ± 0.00094 mM | AE (antiradical efficiency) [3]: 0.0081 ×10^−3 | Classification of antiradical efficiency [3]: Low | TEC50 [3]: 66 min | EC50 (g Antioxidant/kg DPPH°) [4]: 1882.11 ± 37 g Antioxidant/kg DPPH° | EC50 [4]: 45.1 ± 0.95 µM

N.N.[Cl][Pt][Cl] [CisPt, Cisplatin, reference compound]
Radical scavenging activity against ABTS•+ [2]: no antioxidant activity | Radical scavenging activity against ABTS•+ ([2]; listed as Cisplatin (CisPt)): does not show any radical scavenging activity | Radical scavenging activity against DPPH ([4]; inhibition curve did not converge, EC50 could not be calculated): no antioxidant activity

COc1cc[c]([Pd@SP2]([Br])([PH](c2ccccc2)(c2ccccc2)c2ccccc2)[PH](c2ccccc2)(c2ccccc2)c2ccccc2)cc1 [Complex 2, Trans-Bromo(4-methoxyphenyl)bis(triphenylphosphine)Palladium]
EC50 [1]: 1.48 ± 0.71 µM | EC50 [2, 6]: 0.00701 ± 0.00098 mM | AE (antiradical efficiency) [3]: 0.2155 ×10^−3 | Classification of antiradical efficiency [3]: Low | TEC50 [3]: 16 min | EC50 [4]: 7.09 ± 0.94 µM

CC(=O)Oc1cc[c]([Pd@SP2]([Cl])([PH](c2ccccc2)(c2ccccc2)c2ccccc2)[PH](c2ccccc2)(c2ccccc2)c2ccccc2)cc1 [Complex 6, Trans-Chloro(4-acethoxyphenyl)bis(triphenylphosphine)Palladium]
EC50 [1]: 6.46 ± 2.28 µM | EC50 [2, 6]: 0.0458 ± 0.00095 mM | AE (antiradical efficiency) [3]: 0.0328 ×10^−3 | Classification of antiradical efficiency [3]: Low | TEC50 [3]: 53 min | EC50 (g Antioxidant/kg DPPH°) [4]: 573.94 ± 40 g Antioxidant/kg DPPH° | EC50 [4]: 14.3 ± 0.92 µM

CC(=O)Oc1cc[c]([Pd@SP2]([Br])([PH](c2ccccc2)(c2ccccc2)c2ccccc2)[PH](c2ccccc2)(c2ccccc2)c2ccccc2)cc1 [Complex 5, Trans-Bromo(4-acethoxyphenyl)bis(triphenylphosphine)Palladium]
EC50 [1]: 5.28 ± 2.3 µM | EC50 [2, 6]: 0.1358 ± 0.00025 mM | EC50 ([2]; value given in text in mM): 0.135 mM | AE (antiradical efficiency) [3]: 0.0264 ×10^−3 | Classification of antiradical efficiency [3]: Low | TEC50 [3]: 58 min | EC50 (g Antioxidant/kg DPPH°) [4]: 653.57 ± 20 g Antioxidant/kg DPPH° | EC50 [4]: 15.5 ± 0.96 µM

[Cl][Pd@SP2]([c]1ccccc1)([PH](c1ccccc1)(c1ccccc1)c1ccccc1)[PH](c1ccccc1)(c1ccccc1)c1ccccc1 [Complex 9, Trans-Chloro(phenyl)bis(triphenylphosphine)Palladium]
Effect on chemiluminescence at lowest concentrations [1]: weak effect | EC50 [1]: 39.2 ± 17 µM | EC50 [2, 6]: 0.0103 ± 0.00064 mM | AE (antiradical efficiency) [3]: 0.1019 ×10^−3 | Classification of antiradical efficiency [3]: Low | TEC50 [3]: 36 min | EC50 (g Antioxidant/kg DPPH°) [4]: 271.97 ± 36 g Antioxidant/kg DPPH° | EC50 [4]: 7.33 ± 0.97 µM

COc1cc[c]([Pd@SP2]([I])([PH](c2ccccc2)(c2ccccc2)c2ccccc2)[PH](c2ccccc2)(c2ccccc2)c2ccccc2)cc1 [Complex 1, Trans-Iodo(4-methoxyphenyl)bis(triphenylphosphine)Palladium]
EC50 [1]: 3.56 ± 1.87 µM | EC50 [2, 6]: 0.00578 ± 0.00098 mM | AE (antiradical efficiency) [3]: 1.8437 ×10^−3 | TEC50 [3]: 11 min | EC50 (g Antioxidant/kg DPPH°) [4]: 49.31 ± 39 g Antioxidant/kg DPPH° | EC50 [4]: 1.14 ± 0.9 µM

Oc1cc(O)c2c(c1)O[C@H](c1ccc(O)c(O)c1)[C@H](O)C2 [epicatechin]
IC50 [5]: 15.7 µM

COc1cc[c]([Pd@SP2]([Cl])([PH](c2ccccc2)(c2ccccc2)c2ccccc2)[PH](c2ccccc2)(c2ccccc2)c2ccccc2)cc1 [Complex 3, Trans-Chloro(4-methoxyphenyl) bis(triphenylphosphine)Palladium]
EC50 [1]: 5.8 ± 2.6 µM | EC50 [2, 6]: 0.0111 ± 0.00094 mM | AE (antiradical efficiency) [3]: 0.2160 ×10^−3 | Classification of antiradical efficiency [3]: Low | EC50 (g Antioxidant/kg DPPH°) [4]: 73.49 ± 38 g Antioxidant/kg DPPH° | EC50 [4]: 1.9 ± 0.87 µM

CC(=O)Oc1cc[c]([Pd@SP2]([I])([PH](c2ccccc2)(c2ccccc2)c2ccccc2)[PH](c2ccccc2)(c2ccccc2)c2ccccc2)cc1 [Complex 4, Trans-Iodo(4-acethoxyphenyl)bis(triphenylphosphine)Palladium]
Effect on chemiluminescence at lowest concentrations [1]: weak effect | EC50 [1]: 11.3 ± 3.3 µM | EC50 [2, 6]: 0.0109 ± 0.00095 mM | AE (antiradical efficiency) [3]: 0.0002 ×10^−3 | Classification of antiradical efficiency [3]: Low | TEC50 [3]: 78 min | EC50 (g Antioxidant/kg DPPH°) [4]: 82,194.89 ± 33 g Antioxidant/kg DPPH° | EC50 [4]: 1840.8 ± 0.44 µM | IC50 ([4]; value given in text in mM): 1.84 mM
